Assay results taken from patent US20110135738A1, “SINGLE DOSAGE PHARMACEUTICAL FORMULATION COMPRISING EPROSARTAN MESYLATE” (LEK Pharmaceutical S. D. D., priority 2008, published 2011).

How the values were obtained:
[1] = Flowability of powder / final mixture; format: physicochemical; conditions: drug per se
[2] = cited from earlier work
[3] = at RH over 60%; cited from earlier work
[4] = oral; cited from earlier work
[5] = X-ray diffraction analysis of eprosartan mesylate form / physical stability; format: physicochemical; conditions: ambient temperature and humidity
Protocol: During the dry granulation processes using different excipients from the list above, physical stability of the eprosartan mesylate anhydrate was investigated. […] The final tablet form and placebo powder were analyzed by X-ray diffraction (XRD) pattern to confirm presence of anhydrous form of eprosartan mesylate.
Diffractograms were collected on X′Pert PRO MPD diffractometer using CuKα radiation.
Data were recorded from 2 do 40° 2θ; in steps of 0.033° 2θ; with the integration times 50 s (routine testing) and from 4 do 20° 2θ; in steps of 0.033° 2θ; with the integration times 2000 s (to achieve lower LOD). The range for measurements with longer integration times was chosen according to the known diffractograms of eprosartan mesylate crystalline forms, which all have characteristic peaks in the carefully measured range between 4 and 20° 2theta.

flowability of eprosartan mesylate [1]: below 0.15 g/sec
physical and chemical stability of anhydrous form [5]: physically and chemically stable
SMILES: CCCCc1ncc(/C=C(\Cc2cccs2)C(=O)O)n1Cc1ccc(C(=O)O)cc1.CS(=O)(=O)O [Eprosartan mesylate, (E)-α-[2-n-butyl-1-[(4-carboxyphenyl)methyl]-1H-imidazol-5-yl]methylene-2-thiophenepropionic acid monomethanesulfonate]
permeability across the intestinal epithelium [2]: low permeability
interconversion of anhydrous form [3]: interconverts to eprosartan mesylate mono- and later to dihydrate
bioavailability [4]: 13%
